Assay results published in ChEMBL document CHEMBL1201862, “PubChem BioAssay data set” (2004).
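96-well plates; 48 h exposure; 5 concentrations. Endpoints by linear interpolation between flanking doses. Not reached: highest tested concentration assigned. GI50: concentration for 50% inhibition of growth.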 Activity calls are given as the source filed them. No stated cut-off is given here; in the data, active = GI50 up to about 1.1 µM and inactive = higher.

Tests used:
Assay in all cases: NCI anticancer screen, dose series, 48 h
HCT-15 = system: HCT-15
UACC-62 = system: UACC-62
HOP-92 = system: HOP-92
CAKI-1 = system: CAKI-1
HL-60 = system: HL-60
NCI-H522 = system: NCI-H522
SK-MEL-2 = system: SK-MEL-2
SNB-19 = system: SNB-19
SF-268 = system: SF-268
SNB-75 = system: SNB-75
SN12C = system: SN12C
CCRF-CEM = system: CCRF-CEM
OVCAR-5 = system: OVCAR-5
HOP-62 = system: HOP-62
TK-10 = system: TK-10
786-0 = system: 786-0

Compound	GI50 (HCT-15) [µM]	GI50 (UACC-62)	GI50 (HOP-92)	GI50 (CAKI-1)	GI50 (HL-60)	GI50 (NCI-H522)	GI50 (SK-MEL-2)	GI50 (SNB-19)	GI50 (SF-268)	GI50 (SNB-75)	GI50 (SN12C)	GI50 (CCRF-CEM)	GI50 (OVCAR-5)	GI50 (HOP-62)	GI50 (TK-10)	GI50 (786-0)
CCCNC1=C(C)C(=O)C2=C(C1=O)[C@H](COC(N)=O)[C@]1(OC)[C@@H]3N[C@@H]3CN21	4.01	0.472 µM (active)	8.57 µM (inactive)	4.57 µM (inactive)	0.394 µM (active)	2.88 µM (inactive)	9.51 µM (inactive)	2.01 µM (inactive)	4.65 µM (inactive)	1.67 µM (inactive)	2.42 µM (inactive)	3.16 µM (inactive)	13.7 µM (inactive)	0.303 µM (active)	–	–
CC(=O)OCC1=C(C(=O)O)C(c2ccc3c(c2)OCO3)c2cc3c(cc2O1)OCO3 (centres undefined)	> 100	> 100 µM (inactive)	70.1 µM (inactive)	> 100 µM (inactive)	> 100 µM (inactive)	–	–	> 100 µM (inactive)	–	53.8 µM (inactive)	> 100 µM (inactive)	> 100 µM (inactive)	–	> 100 µM (inactive)	> 100 µM (inactive)	–
Cc1ccc(C(C)(C)C[P+](C)(c2ccccc2)c2ccccc2)cc1	99.3	5.38 µM (inactive)	1.97 µM (inactive)	23.9 µM (inactive)	1.75 µM (inactive)	3.4 µM (inactive)	4.21 µM (inactive)	12 µM (inactive)	16.9 µM (inactive)	8.18 µM (inactive)	20.4 µM (inactive)	9.08 µM (inactive)	18.1 µM (inactive)	18.4 µM (inactive)	–	–
COc1ccc(C[C@H](N)C(=O)N2C[C@@H](CO)C[C@@H](n3ccc(=O)[nH]c3=O)C2)cc1	> 100	> 100 µM (inactive)	> 100 µM (inactive)	> 100 µM (inactive)	> 100 µM (inactive)	> 100 µM (inactive)	> 100 µM (inactive)	> 100 µM (inactive)	> 100 µM (inactive)	–	> 100 µM (inactive)	> 100 µM (inactive)	> 100 µM (inactive)	> 100 µM (inactive)	> 100 µM (inactive)	–
O=C(NCCc1ccccc1)C1C(=O)C(=O)N(CCc2ccccc2)C1=O (centres undefined)	> 100	> 100 µM (inactive)	> 100 µM (inactive)	> 100 µM (inactive)	> 100 µM (inactive)	> 100 µM (inactive)	> 100 µM (inactive)	> 100 µM (inactive)	> 100 µM (inactive)	> 100 µM (inactive)	> 100 µM (inactive)	> 100 µM (inactive)	–	–	> 100 µM (inactive)	> 100 µM (inactive)
NNC(=S)N/N=C(\CCCC(=O)NCCc1ccccc1)CC(=O)c1ccccc1	> 100	> 100 µM (inactive)	> 100 µM (inactive)	–	> 100 µM (inactive)	> 100 µM (inactive)	> 100 µM (inactive)	> 100 µM (inactive)	> 100 µM (inactive)	–	> 100 µM (inactive)	–	> 100 µM (inactive)	> 100 µM (inactive)	> 100 µM (inactive)	> 100 µM (inactive)
Nc1c(-c2nc3ccccc3[nH]2)sc(=S)n1-c1ccc(Cl)cc1	25.4	16.1 µM (inactive)	–	33 µM (inactive)	> 100 µM (inactive)	22.4 µM (inactive)	25.6 µM (inactive)	25.7 µM (inactive)	25.3 µM (inactive)	27.7 µM (inactive)	21.4 µM (inactive)	41.1 µM (inactive)	> 100 µM (inactive)	25.6 µM (inactive)	30 µM (inactive)	19.9 µM (inactive)
CC(=O)O[C@H]1CC[C@@]2(C)C(=CC[C@H]3C4=CC=C(C(C)=O)[C@@]4(C)CCC32)C1 (some centres undefined)	29.8	18.8 µM (inactive)	27.6 µM (inactive)	34.8 µM (inactive)	18 µM (inactive)	20 µM (inactive)	–	63.8 µM (inactive)	32.4 µM (inactive)	31.1 µM (inactive)	34.7 µM (inactive)	21.4 µM (inactive)	27.9 µM (inactive)	> 100 µM (inactive)	23.7 µM (inactive)	35.5 µM (inactive)
O=c1c(C(c2ccc(Cl)cc2)c2c(O)c3ccccc3n(-c3ccccc3)c2=O)c(O)c2ccccc2n1-c1ccccc1	15.2	13.3 µM (inactive)	16.7 µM (inactive)	28.2 µM (inactive)	–	22.6 µM (inactive)	19.5 µM (inactive)	17.7 µM (inactive)	16.9 µM (inactive)	–	19.1 µM (inactive)	18.7 µM (inactive)	> 100 µM (inactive)	28 µM (inactive)	67.8 µM (inactive)	–
CC(=O)Nc1cccc(/N=N/N(C)C)c1	> 100	> 100 µM (inactive)	> 100 µM (inactive)	> 100 µM (inactive)	> 100 µM (inactive)	> 100 µM (inactive)	> 100 µM (inactive)	> 100 µM (inactive)	> 100 µM (inactive)	> 49.3 µM (inactive)	> 100 µM (inactive)	> 100 µM (inactive)	> 100 µM (inactive)	> 100 µM (inactive)	–	–
C/C=C/C(=O)Oc1cccc2cccnc12	7	6.98 µM (inactive)	8.32 µM (inactive)	32.6 µM (inactive)	4.32 µM (inactive)	1.82 µM (inactive)	–	48.8 µM (inactive)	3.2 µM (inactive)	14.4 µM (inactive)	5.87 µM (inactive)	3.7 µM (inactive)	16.5 µM (inactive)	26.7 µM (inactive)	44.2 µM (inactive)	29.2 µM (inactive)
CC(=O)N(C)C=C1C(=O)N(C)C(=O)N(C)C1=O	> 100	> 100 µM (inactive)	> 100 µM (inactive)	> 100 µM (inactive)	> 100 µM (inactive)	–	> 100 µM (inactive)	> 100 µM (inactive)	–	> 100 µM (inactive)	> 100 µM (inactive)	> 100 µM (inactive)	> 100 µM (inactive)	–	> 100 µM (inactive)	> 100 µM (inactive)
CCCC(O)C(NC(=O)CCl)C(=O)O (centres undefined)	> 100	> 100 µM (inactive)	> 100 µM (inactive)	> 100 µM (inactive)	> 100 µM (inactive)	> 100 µM (inactive)	> 100 µM (inactive)	> 100 µM (inactive)	> 100 µM (inactive)	> 100 µM (inactive)	> 100 µM (inactive)	> 100 µM (inactive)	> 100 µM (inactive)	> 100 µM (inactive)	–	–
CSCCC(NC(=O)C(Cc1ccccc1)NC(=O)CNC(=O)CNC(=O)C(N)Cc1ccc(O)cc1)C(=O)O (centres undefined)	> 100	> 100 µM (inactive)	> 100 µM (inactive)	> 100 µM (inactive)	> 100 µM (inactive)	> 100 µM (inactive)	> 100 µM (inactive)	> 100 µM (inactive)	> 100 µM (inactive)	> 90.2 µM (inactive)	> 100 µM (inactive)	> 100 µM (inactive)	> 55.5 µM (inactive)	> 100 µM (inactive)	–	–
COc1ccc2c(c1O)C(=O)C(CCC(=O)O)CC2 (centres undefined)	> 100	> 100 µM (inactive)	> 100 µM (inactive)	> 100 µM (inactive)	> 100 µM (inactive)	–	–	> 100 µM (inactive)	–	> 100 µM (inactive)	> 100 µM (inactive)	> 100 µM (inactive)	–	> 100 µM (inactive)	> 100 µM (inactive)	> 100 µM (inactive)
NC(=O)CCCC(NCc1c2ccccc2nc2ccccc12)C(=O)O (centres undefined)	36.5	–	27.5 µM (inactive)	27.5 µM (inactive)	20.5 µM (inactive)	22.6 µM (inactive)	90.6 µM (inactive)	–	41.6 µM (inactive)	58.2 µM (inactive)	41.5 µM (inactive)	22.2 µM (inactive)	> 100 µM (inactive)	> 100 µM (inactive)	55 µM (inactive)	42.7 µM (inactive)
COC(=O)C1=C(O)c2cc(OC)c(OC)c(OC)c2[C@H](c2cc(OC)c(OC)c(OC)c2)C1C(=O)OC (some centres undefined)	28.8	14 µM (inactive)	9.89 µM (inactive)	> 100 µM (inactive)	16.8 µM (inactive)	13.5 µM (inactive)	–	38.3 µM (inactive)	42.1 µM (inactive)	38.7 µM (inactive)	50.8 µM (inactive)	32.8 µM (inactive)	> 100 µM (inactive)	59.8 µM (inactive)	> 100 µM (inactive)	34 µM (inactive)
C[C@@H](N[C@H]1CCC[C@@H]1O)c1ccccc1.C[C@@H](N[C@H]1CCC[C@H]1O)c1ccccc1	> 100	75 µM (inactive)	30.7 µM (inactive)	–	43.6 µM (inactive)	> 100 µM (inactive)	> 100 µM (inactive)	71.8 µM (inactive)	> 100 µM (inactive)	> 100 µM (inactive)	> 100 µM (inactive)	89.9 µM (inactive)	–	51.9 µM (inactive)	90.4 µM (inactive)	70.1 µM (inactive)
COc1ccc(OC)c(CC(C)N)c1 (centres undefined)	> 100	> 100 µM (inactive)	–	> 100 µM (inactive)	–	> 100 µM (inactive)	> 100 µM (inactive)	> 100 µM (inactive)	> 100 µM (inactive)	> 100 µM (inactive)	> 100 µM (inactive)	> 100 µM (inactive)	–	> 100 µM (inactive)	> 100 µM (inactive)	> 100 µM (inactive)
CCCc1ccc(NCc2cc(OC)c(OC)c(OC)c2)cc1	17.7	26.9 µM (inactive)	22.9 µM (inactive)	–	–	–	18.6 µM (inactive)	36.4 µM (inactive)	27.7 µM (inactive)	29 µM (inactive)	22.3 µM (inactive)	17.8 µM (inactive)	26.6 µM (inactive)	34.1 µM (inactive)	59.8 µM (inactive)	22.4 µM (inactive)
